Experimental data reported in PMC6212786 (Nucleic Acids Research, 2018).

System: T4 DNA ligase
Assay: blunt-end DNA ligation assay, effect on T4 DNA ligase
Type: biochemical, bacteriophage T4
Details: pH 7.5

For “gp45: T4 sliding clamp, trimeric processivity factor for DNA polymerase”, which “stimulation of blunt-end ligation activity of T4 DNA ligase” value is on record?
The value was “did not stimulate”.
